Assay results from US20230047569A1, “PESTICIDAL COMPLEX COMPOSITIONS FOR SYNERGISTIC DELIVERY OF PESTICIDAL ACTIVE INGREDIENTS AND METHODS OF SELECTION THEREOF” (0903608 B.C. Ltd., priority 2019, published 2023).

How the values were obtained:
[1] = system: Trichoplusia ni; experiment: In-planta insecticidal efficacy on sprayed green cabbage plants (Abbott and Colby formulas); format: in vivo; conditions: 6 days; for Survival Rate (%): Coragen […] (0.104 ppm chlorantraniliprole) and/or aliphatic acid 750 ppm, 10% isopropanol; for Observed Efficacy, W (%): Coragen […] and/or aliphatic acid 750 ppm, Abbott corrected vs 10% isopropanol control
Method: Water and 10% isopropanol were tested as control treatments.
Green cabbage plants (Brassica oleracea var. capitate, Danish Ballhead cultivar) were grown from seed (available from West Coast Seeds, Delta, BC, Canada) in potting soil for 4-6 weeks in a pest-free indoor growing environment. At between 4-6 weeks of age, each cabbage plant was sprayed with 20 mL of treatment solution using a pressurized CO2 sprayer from approximately 18 inches above the plant, and allowed to dry.
While for SF<1, antagonism is present and for SF=1, the efficacy of the compounds is merely additive.

[2] = Solubility / effective solubilized concentration in 10% DMSO/90% PDB by HPLC; conditions: working stock: DMSO stock diluted 10-fold in PDB
Method: This solution was diluted 10-fold in potato dextrose broth (PDB) to give a concentration of 0.05 mg/mL in 10% DMSO/90% PDB.
Concentrated stock solutions were prepared by dissolving pesticidal active ingredient in 100% dimethylsulfoxide (DMSO), which were then diluted 10-fold in potato dextrose broth (PDB) to give a working stock solution, as described below: […]

CCC(N)C(=O)O (stereo not shown) [2-aminobutyric acid]
Survival Rate (%) [1]: 58.50% | Observed Efficacy, W (%) [1]: 8.59%

CCC(C)CCC(=O)O (stereo not shown) [4-methylhexanoic acid]
Survival Rate (%) [1]: 62.50% | Observed Efficacy, W (%) [1]: 2.34%

O=C(O)CCCCCCCCCO [10-hydroxydecanoic acid]
Survival Rate (%) [1]: 40.50% | Observed Efficacy, W (%) [1]: 36.72%

CO/C=C(/C(=O)OC)c1ccccc1Oc1cc(Oc2ccccc2C#N)ncn1 [Azoxystrobin, azoxystrobin]
effective solubilized concentration [2]: 0.15 mg/mL
